Measured values published in patent US20090233958A1, “(+)-BELOXEPIN AND METHODS FOR ITS SYNTHESIS AND USE” (priority 2008, published 2009).
Like-named read-outs stand apart in the source and are kept apart here.

Tests used:
[1] = tested on: major depression; settings: subsequent clinical trials; Paanakker et al. 1998; cited from earlier work
[2] = tested on: depression; settings: based on HAMD score reduction; cited from earlier work
[3] = tested on: REM sleep; settings: 25-400 mg, cited from earlier work
[4] = tested on: noradrenergic, histaminergic and cholinergic receptors; settings: Sperling & Demling 1997; cited from earlier work
[5] = target: T1, 5HT2C receptor (Homo sapiens, UniProt P28335); settings: Claghorn & Lesem 1996; cited from earlier work
T1 sequence (P28335 33-458): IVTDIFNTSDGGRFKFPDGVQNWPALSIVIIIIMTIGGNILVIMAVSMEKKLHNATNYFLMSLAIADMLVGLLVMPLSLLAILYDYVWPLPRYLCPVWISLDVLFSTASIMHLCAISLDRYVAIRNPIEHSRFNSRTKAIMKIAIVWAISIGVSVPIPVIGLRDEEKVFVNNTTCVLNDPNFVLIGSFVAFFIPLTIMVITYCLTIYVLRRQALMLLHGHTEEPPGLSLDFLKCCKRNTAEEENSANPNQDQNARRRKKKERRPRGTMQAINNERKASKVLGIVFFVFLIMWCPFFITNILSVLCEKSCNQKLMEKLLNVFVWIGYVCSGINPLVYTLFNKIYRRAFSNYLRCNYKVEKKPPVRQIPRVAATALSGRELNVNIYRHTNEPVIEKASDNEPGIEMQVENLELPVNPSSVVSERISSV

[6] = tested on: animal models of depression; settings: cited from earlier work
[7] = cited from earlier work
[8] = target: T2, NET (Rattus norvegicus, UniProt Q63380); assay: NE uptake inhibition assay, rat hypothalamus synaptosomes; assay type: biochemical; settings: read-out: NET IC50 (norepinephrine reuptake inhibition)
T2 construct: from tissue; host or cells: rat hypothalamus synaptosomes
T2 sequence (Q63380 1-617): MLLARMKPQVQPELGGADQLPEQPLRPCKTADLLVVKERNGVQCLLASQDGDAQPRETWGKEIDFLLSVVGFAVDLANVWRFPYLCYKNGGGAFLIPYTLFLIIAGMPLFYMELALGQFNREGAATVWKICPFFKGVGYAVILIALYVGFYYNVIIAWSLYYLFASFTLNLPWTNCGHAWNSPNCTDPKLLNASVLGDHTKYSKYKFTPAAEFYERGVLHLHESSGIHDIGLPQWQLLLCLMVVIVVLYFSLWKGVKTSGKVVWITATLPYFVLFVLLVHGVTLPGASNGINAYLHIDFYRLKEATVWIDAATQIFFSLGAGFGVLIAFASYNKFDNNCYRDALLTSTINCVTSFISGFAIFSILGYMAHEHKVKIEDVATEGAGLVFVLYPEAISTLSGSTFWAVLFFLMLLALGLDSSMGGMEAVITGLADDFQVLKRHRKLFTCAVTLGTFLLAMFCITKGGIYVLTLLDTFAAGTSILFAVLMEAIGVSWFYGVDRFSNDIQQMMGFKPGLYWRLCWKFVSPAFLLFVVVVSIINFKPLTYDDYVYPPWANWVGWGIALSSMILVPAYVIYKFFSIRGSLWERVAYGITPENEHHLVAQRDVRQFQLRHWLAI

[9] = tested on: L5 SNL rats; assay: L5-Single Nerve Ligation model of neuropathic pain, tactile allodynia (von Frey); assay type: in vivo, rat; settings: for antiallodynic effect: 8 days post surgery, 30 min post treatment, FIG. 1; for antiallodynic effect over time: tested 30, 60, 120, 240 min
Experimental: Protocol. The antiallodynic activity of (+)- and (−)-beloxepin were tested in vivo using the L5-Single Nerve Ligation model of non-nociceptive neuropathic pain as described in LaBuda & Little, 2005, J. Neurosci. Methods 144:175-181. The test animals were placed in a Plexiglas chamber (10 cm×20 cm×25 cm) and habituated for 15 minutes. The chamber was positioned on top of a mesh screen so that von Frey monofilaments could be presented to the plantar surface of both hindpaws. Measurement of tactile sensitivity for each hind paw were obtained using the up/down method (Dixon, 1980, Annu. Rev. Pharmacol. Toxicol. 20:441-462) with seven Frey monofilaments (0.4, 1, 2, 4, 6, 8 and 15 grams). Each trial started with a von Frey force of 2 grams delivered to the right hind paw for approximately 1-2 seconds and then the left hind paw. If there was no withdrawal response, the next higher force was delivered. If there was a response, the next lower force was delivered. This procedure was performed until no response was made at the highest force (15 grams) or until four stimuli were administered following the initial response. The 50% paw withdrawal threshold for each paw was calculated using the following formula: [Xth]log=[vFr]log+ky, where [vFr] is the force of the last von Frey used, k=0.2249 which is the average interval (in log units) between the von Frey monofilaments, and y is a value that depends upon the pattern of withdrawal responses (Dixon, 1980, supra). […] Testing for tactile sensitivity was performed twice and the mean 50% withdrawal value assigned as the tactile sensitivity for the right and left paws for each animal.
Results. The antiallodynic effects produced by (+)-beloxepin (30 mg/kg IP) and (−)-beloxepin (30 mg·kg IP) in L5 SNL rats 8 days post surgery are illustrated in FIG. 1. In this experiment, at 8 days post surgery, rats were treated with vehicle or beloxepin enantiomers (30 mg/kg IP) and tested for tactile allodynia at 30 min post treatment. […] No side effects were observed following treatment with either enantiomer.
The antiallodynic effects produced by (+)-beloxepin (30 mg/kg IP) in L5 SNL rats 14 days post surgery are illustrated in FIG. 2. In this experiment, at 14 days post surgery, rats were treated with vehicle or (+)-beloxepin and tested for tactile allodynia at 30, 60, 120 and 240 min post treatment. Vehicle treated rats were tested at 30 min post treatment.
Protocol. A time course experiment was performed with (−)-beloxepin (60 mg/kg PO) in L5 SNL rats at 7 days post-surgery. Rats were tested at 30, 60, 120, and 240 minutes post-drug.
Protocol. A time course experiment was also performed with (+)-beloxepin (60 mg/kg PO) in L5 SNL rats at 14 days post-surgery. Rats were tested at 30, 60, 120, and 240 minutes post-drug.

[10] = tested on: rat 50° C. hot plate model; assay: Rat 50° C. hot plate assay; assay type: in vivo; settings: for antinociceptive activity: 30 mg/kg IP, 30, 60 and 120 minutes after treatment
Experimental: Protocol. Rats were treated with vehicle, 30 mg/kg IP of (−)-beloxepin, or 30 mg/kg IP of (+)-beloxepin and then were placed on a hot plate (50° C.) 30, 60, or 120 minutes after administration of the vehicle or beloxepin enantiomer. Rats treated with 3 mg/kg SC of morphine and tested 30 min post-treatment were used as a positive control in these experiments.

[11] = tested on: rat hindpaw incision model; assay: Rat hindpaw incision model of post-operative pain, tactile allodynia; assay type: in vivo; settings: 30 mg/kg IP, 24 hours post-surgery, tested 30, 60, 120, 240 min
Experimental: Protocol. A time course experiment was also performed with (−)-beloxepin in the hindpaw incision model. At 24 hours post-surgery, rats received vehicle or (−)-beloxepin (30 mg/kg IP). Rats were tested for tactile allodynia at 30, 60, 120 and 240 minutes after administration of (−)-beloxepin.
Protocol. Another time course experiment was performed with (+)-beloxepin in the hindpaw incision model. At 24 hours post-surgery, rats received vehicle or (+)-beloxepin (30 mg/kg IP). Rats were tested for tactile allodynia at 30, 60, 120 and 240 minutes after administration of (+)-beloxepin.

## Cc1cccc2c1Oc1ccccc1C1(O)CCN(C)CC21 (racemic) [(±)-beloxepin, cis-1,2,3,4,4a,13b-hexahydro-2,10-dimethyldiben-[2,3:6,7]oxepino[4,5c]pyridine-4-a-ol]]
[1]
  efficacy for the treatment of major depression: insufficient efficacy
[2]
  fraction of patients with moderate to good response: ⅔
[3]; EEG
  total duration of nocturnal REM sleep: decreased
[3]; acutely and sub-chronically, EEG
  REM latency: dose-dependently prolonged REM latency
[3]; human volunteers
  sedation or other side effects: No sedation or other side effects were observed
[4]
  affinity for noradrenergic, histaminergic and cholinergic receptors: no or very weak affinity
[5]
  affinity for the 5HT2C receptor: modest affinity
[6]; acquired immobility, reserpine-induced hypothermia, conditioned avoidance
  antidepressant properties: exhibit antidepressant properties
[6]; preclinical depression tests
  sedation, motor impairment or other side effects: did not cause sedation, motor impairment or other untoward side effects
[7]; healthy volunteers, up to 800 mg/day
  adverse effects: No important adverse effects were observed
[7]; steady-state, doses of 50 to 800 mg, healthy normal subjects
  tmax: 1.17 h
[8]
  IC50: 130 nM

## Cc1cccc2c1Oc1ccccc1C1(O)CCN(C)CC21 (single isomer, unassigned; (+)) [(+)-beloxepin]
[9]; 30 mg/kg IP
  antiallodynic effect: not statistically significant, (+)-beloxepin produced an antiallodynic effect that was comparable to that observed with (−)-beloxepin
[9]; 30 mg/kg IP, 14 days post surgery
  maximal efficacy, % of the threshold of vehicle-treated rats: 423%
[9]; 30 mg/kg IP, 14 days post surgery, FIG. 2
  antiallodynic effect over time: significant antiallodynic effects at the 30 and 60 min time points
[9]; 60 mg/kg PO, 14 days post-surgery, FIG. 4
  antiallodynic effect over time: did not produce significant antiallodynic effects at any time point
[10]; 30 mg/kg IP, 30, 60, 120 min, FIG. 8
  antinociception, % MPE values: 10-17%
[10]
  antinociceptive activity: no antinociception was observed
[11]
  antiallodynic effect over time: significant antiallodynic effect at the 30 and 60 minute time points

## Cc1cccc2c1Oc1ccccc1C1(O)CCN(C)CC21 (single isomer, unassigned; (-)) [(−)-beloxepin]
[9]; 30 mg/kg IP
  antiallodynic effect: significant antiallodynia
[9]; 60 mg/kg PO, 7 days post-surgery, FIG. 3
  antiallodynic effect over time: significant antiallodynic effects at the 60 and 120 minute time points
[10]
  antinociceptive activity: robust antinociceptive activity at 30, 60, and 120 minutes after treatment
[8]; [3H]norepinephrine, rat hypothalamus synaptosomes, 20 min 37° C.
  IC50: 120 nM
[11]
  antiallodynic effect over time: significant antiallodynic effect at the 30 and 120 minute time point
